Laboratory results: patent US20170266147A1, “METHODS OF INCREASING LATENCY OF ANESTHETIC INDUCTION USING KETONE SUPPLEMENTATION” (priority 2016, published 2017)

Assays:
[1] = Blood levels of βHB after anesthetic induction in Sprague-Dawley rats; type: in vivo, rat; settings: 7 days, relative to baseline levels, p=0.0001 (ketone diet), p=2.21E−05 (ketone salt), FIG. 2
Protocol: (§1) All data are presented as the mean±standard error of the mean (SEM). The effects of compositions comprising ketone supplements on latency to anesthetic induction, as well as on blood βHB levels, were compared to control and/or baseline levels. Data analysis was performed using GRAPHPAD PRISM® v6.0a. Results were considered significant when *p<0.05, **p<0.005, ***p<0.0005. Significance was determined by unpaired t-test.
(§2) Sprague-Dawley rats were fed a standard diet, a ketone diet, or a standard diet supplemented with an oral gavage of the ketone salt βHB mineral salt for 7 days. After 7 days, anesthesia was induced in an anesthesia chamber with isoflurane gas mixed with air, and the time until anesthetic induction was measured by a blinded observer.

[2] = tested on: glucose transporter type 1-deficiency (G1D) syndrome mouse model; test: Time until anesthetic induction (isoflurane) in G1D mice; type: in vivo; settings: for time required before anesthetic induction: relative to control mice fed a standard diet, p=0.0003 (KD), p=0.0136 (KS), p=0.0003 (KE), FIG. 4
Protocol: (§3) Animals were kept in groups of 2-5 mice under standard laboratory conditions (12 h:12 h light-dark cycle) in climate-controlled rooms at 22.0±2.0° C. Animal treatment and measuring procedures were performed in accordance with the University of South Florida Institutional Animal Care and Use Committee (IACUC) guidelines (Protocol#00000457). All efforts were made to reduce the number of animals used. The rodents were put under anesthesia once a week to perform blood draws.
as §1, with “PRISM” for “PRISM®”
G1D mice between 3-5 months old were chronically fed a standard rodent chow diet (SD), ketogenic diet (KD) (Table 1), standard rodent chow diet mixed with 20% ketone salt (βHB mineral salt) supplementation (SD+KS), or standard diet mixed with 20% ketone ester (1,3 butanediol-acetoacetate diester) supplementation (SD+KE) for 10 weeks. After 10 weeks, anesthesia was induced in an anesthesia chamber with isoflurane gas mixed with air, and the time until anesthetic induction was measured by a blinded observer. Ketone body levels in the blood were measured immediately after induction of anesthesia with a PRECISION XTRA® blood glucose and ketone monitoring kit.

Sprague-Dawley rats = test: Time until anesthetic induction (isoflurane) in Sprague-Dawley rats; type: in vivo, rat; settings: 7 days feeding/oral gavage, relative to standard diet fed controls, p=1.32E−6 (ketone diet), p=0.336 (ketone salt), FIG. 1
Protocol: as §3, with “pairs” for “groups”, “2 rats” for “2-5 mice”, “(Protocol#00001749).” for “(Protocol#00000457).”, “used.” for “used. The rodents were put under anesthesia once a week to perform blood draws.”
as §1, §2

## βHB mineral salt [ketone salt]
[1]
  blood levels of βHB after anesthetic induction: significant increase
[2]; 10 weeks, relative to animals fed a standard diet, p=0.0048 (KD), p=0.0338 (KS), FIG. 5
  delay in anesthetic induction normalized to body weight: remained significant
[2]; 10 weeks
  time required before anesthetic induction: significant increases
Sprague-Dawley rats
  number of seconds required before anesthetic induction: significant increase

## CC(=O)CC(=O)OCCC(C)OC(=O)CC(C)=O (stereo not drawn) [ketone ester, 1,3 butanediol-acetoacetate diester]
[2]; 10 weeks
  time required before anesthetic induction: significant increases
[2]; chronic 10 weeks, 20% in standard diet, relative to baseline levels, p=0.0035, FIG. 3
  number of seconds required before anesthetic induction: significant increase
